According to the NIST ThermoML archive (doi:10.1021/je101139k):

Assays:
[1] = Molar enthalpy of transition or fusion; details: Crystal; DSC
[2] = molar heat capacity at constant pressure; details: 101.33 kPa, Small sample (50 mg) DSC
[3] = Crystal; DTA

[Br-].[Br-].[Br-].[Pr+3] [praseodymium(III) bromide]
Details | Molar enthalpy of transition or fusion [kcal/mol] | Normal melting temperature [°C]
[1] | 11.1 | –
[3] | – | 687

molar heat capacity at constant pressure [J/K/mol], [2]
Details | Crystal | Liquid
298.15 K | 105.37 | –
300 K | 105.39 | –
331 K | 105.87 | –
400 K | 106.93 | –
500 K | 108.46 | –
600 K | 109.99 | –
700 K | 111.52 | –
800 K | 113.05 | –
900 K | 114.58 | –
960 K | 115.5 | 141.39
1000 K | – | 141.39
1065 K | – | 141.39
1100 K | – | 141.39
1191 K | – | 141.39
1200 K | – | 141.39
1300 K | – | 141.39
